The data set deals with ATP-binding cassette sub-family C member 2 (Rattus norvegicus, UniProt Q63120). Briefly: TP_TRANSPORTER: Western in vivo SD rat, liver. The data set is classed as functional, organism-based, Sprague-Dawley.
Sequence of ATP-binding cassette sub-family C member 2 (Q63120 whole entry): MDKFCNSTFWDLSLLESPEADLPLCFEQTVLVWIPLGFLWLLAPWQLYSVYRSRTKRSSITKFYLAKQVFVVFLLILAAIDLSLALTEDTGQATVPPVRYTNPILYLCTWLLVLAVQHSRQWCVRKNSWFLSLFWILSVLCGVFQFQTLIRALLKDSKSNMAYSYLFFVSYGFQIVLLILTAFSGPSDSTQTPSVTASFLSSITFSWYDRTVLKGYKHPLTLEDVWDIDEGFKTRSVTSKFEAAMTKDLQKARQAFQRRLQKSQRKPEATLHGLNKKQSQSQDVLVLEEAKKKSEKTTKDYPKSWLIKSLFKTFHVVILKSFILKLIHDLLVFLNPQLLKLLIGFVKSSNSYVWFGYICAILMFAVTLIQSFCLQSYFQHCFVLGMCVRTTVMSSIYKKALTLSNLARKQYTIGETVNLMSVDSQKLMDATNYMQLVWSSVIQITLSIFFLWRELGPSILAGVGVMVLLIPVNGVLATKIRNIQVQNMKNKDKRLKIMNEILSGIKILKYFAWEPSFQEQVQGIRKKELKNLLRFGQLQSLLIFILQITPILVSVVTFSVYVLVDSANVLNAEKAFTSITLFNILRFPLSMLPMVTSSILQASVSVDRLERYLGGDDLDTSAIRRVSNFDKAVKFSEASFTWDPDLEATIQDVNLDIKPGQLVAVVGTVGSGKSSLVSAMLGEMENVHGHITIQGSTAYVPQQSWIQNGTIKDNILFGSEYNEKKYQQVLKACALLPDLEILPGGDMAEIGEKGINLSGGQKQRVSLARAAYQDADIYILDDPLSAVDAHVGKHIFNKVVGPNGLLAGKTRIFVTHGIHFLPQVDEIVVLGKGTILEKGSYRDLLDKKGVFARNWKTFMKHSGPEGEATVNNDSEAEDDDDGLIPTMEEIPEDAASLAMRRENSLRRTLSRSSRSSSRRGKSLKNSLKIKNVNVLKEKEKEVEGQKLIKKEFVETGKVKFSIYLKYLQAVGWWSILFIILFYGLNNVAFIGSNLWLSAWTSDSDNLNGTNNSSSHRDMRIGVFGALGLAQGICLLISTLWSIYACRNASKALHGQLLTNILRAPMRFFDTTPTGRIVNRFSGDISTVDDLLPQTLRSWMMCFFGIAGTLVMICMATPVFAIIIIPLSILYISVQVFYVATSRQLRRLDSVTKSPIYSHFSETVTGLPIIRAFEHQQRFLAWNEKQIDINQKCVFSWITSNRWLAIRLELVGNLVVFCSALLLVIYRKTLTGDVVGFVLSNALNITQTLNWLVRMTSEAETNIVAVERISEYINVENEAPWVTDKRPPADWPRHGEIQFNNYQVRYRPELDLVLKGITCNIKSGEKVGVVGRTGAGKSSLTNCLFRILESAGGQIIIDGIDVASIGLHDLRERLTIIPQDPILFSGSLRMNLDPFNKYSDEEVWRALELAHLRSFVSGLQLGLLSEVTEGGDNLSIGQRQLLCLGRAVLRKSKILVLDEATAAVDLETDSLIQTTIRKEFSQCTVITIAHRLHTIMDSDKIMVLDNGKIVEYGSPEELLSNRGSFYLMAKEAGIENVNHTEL

Turning to `CCC1(c2ccccc2)C(=O)NC(=O)NC1=O` [PHENOBARBITAL], the Activity result was “inducer [+]”.

On to `CC(=O)[C@H]1[C@H](C#N)C[C@H]2[C@@H]3CC=C4C[C@@H](O)CC[C@]4(C)[C@H]3CC[C@@]21C` [PREGNENOLONE CARBONITRILE], for which the Activity result was “inducer [+]”.
